Data published in publication PMC4898691, “Structure of a Berberine Bridge Enzyme-Like Enzyme with an Active Site Specific to the Plant Family Brassicaceae” (PLoS ONE, 2016).

Target: T1, AtBBE-like 28 (Arabidopsis thaliana, UniProt Q9FI21)
T1 construct: gene At5g44440; two chains in asymmetric unit
T1 sequence (Q9FI21 28-533): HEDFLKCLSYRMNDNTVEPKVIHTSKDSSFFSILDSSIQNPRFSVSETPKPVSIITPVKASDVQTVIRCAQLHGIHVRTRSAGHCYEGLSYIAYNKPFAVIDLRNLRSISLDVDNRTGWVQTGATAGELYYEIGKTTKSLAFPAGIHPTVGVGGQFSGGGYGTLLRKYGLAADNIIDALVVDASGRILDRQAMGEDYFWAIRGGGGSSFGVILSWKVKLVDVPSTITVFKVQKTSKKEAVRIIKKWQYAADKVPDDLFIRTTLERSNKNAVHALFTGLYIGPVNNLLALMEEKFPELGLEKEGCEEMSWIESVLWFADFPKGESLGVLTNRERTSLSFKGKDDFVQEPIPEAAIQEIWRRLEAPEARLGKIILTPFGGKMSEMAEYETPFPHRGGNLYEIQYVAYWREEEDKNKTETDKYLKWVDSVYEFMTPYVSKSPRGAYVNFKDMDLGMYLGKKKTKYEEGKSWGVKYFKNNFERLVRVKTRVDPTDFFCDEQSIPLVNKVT
Assay: X-ray crystallography ([…] A)
Type: binding
Details: covalent; mono-covalent, His111 to flavin 8alpha-position; crystals at 277 K, HEPES pH 7.0, Jeffamine ED 2001

Cc1cc2nc3c(=O)[nH]c(=O)nc-3n(C[C@H](O)[C@H](O)[C@H](O)COP(=O)(O)OP(=O)(O)OC[C@H]3O[C@@H](n4cnc5c(N)ncnc54)[C@H](O)[C@@H]3O)c2cc1C [FAD]
X-ray crystallography (1.85 A): the covalent linkage established by the conserved GGHD motif was clearly seen in the crystal structure
